Assay results taken from patent US7517858B1, “Prodrugs of pharmaceuticals with improved bioavailability” (The Regents of the University of California, priority 1995, dated 2009).
“Also recorded” adds a separate entry of the source.

Key:
[1] = test system: Rauscher leukemia virus complex (RLV); experiment: Treatment of Rauscher leukemia virus-infected mice (spleen weight); format: in vivo; conditions: for effective doses (ED50): RLV-infected BALB/C mice, 21 days oral, prodrug by gavage once a day, AZT in drinking water, spleen weight day 23
Text: 1-O-Octadecyl-sn-glycero-3-phospho-AZT was compared to free AZT in treating mice infected with Rauscher murine leukemia virus (RLV). RLV is a murine retrovirus, and RLV-infected mice are useful as a model system for evaluating therapeutic effectiveness of candidate anti-AIDS drugs against retrovirus induced disease in vivo. […] Effective antiviral agents inhibit the splenomegaly, and a reduction in organ weight correlates with the elimination of virus (Ruprecht, R., et al., Nature 323:467-469 (1986)). […] The closest practical approach to optimum administration is the intake of AZT in drinking water.
Female BALB/C mice were infected with 1×10^4 plaque-forming units (PFU) of Rauscher leukemia virus complex (RLV) on day 0. Control animals were injected with saline. Beginning on day 2, groups of the infected mice as indicated in FIG. 1 were treated with AZT at doses from about 11.0 mg/kg/day to 15.0 mg/kg/day for 21 days either by offering AZT in drinking water or by gavaging with 1-O-octadecyl-sn-glycero-3-P-AZT once a day. On day 23 post-inoculation, the mice in both treatment protocols were sacrificed, and the spleen weights of the animals were determined. The mean spleen weights, indicating relative level of virus infection, for each dose level in the two protocols, are represented in the bar graphs of FIG. 1.

[2] = Tissue distribution 24 h after oral administration of 14C-PFA lipid prodrugs to mice; format: in vivo; conditions: oral gavage 20 mg/kg in liposomes, 14C radioactivity (FIG. 2)
Protocol: 1-O-Octadecyl-sn-glycero-3-PFA[^14C] and 1-O-octadecyl-2-O-methyl-sn-glycero-3-PFA[^14C] (30 microcuries/micromole) were dried with dioleoylphosphatidylcholine/cholesterol/drug in a molar ratio of 60/30/10 in a nitrogen stream, lyophilized overnight and isotonic sorbitol was added. After vortexing and warming, the vessel was sonicated at maximum output in a Heat Systems cup and horn sonicator for one hour. The resulting liposome preparation was filtered through a 0.2 micron filter and administered to mice by oral gavage in a dose of 20 mg/kg of the respective PFA lipid prodrugs. After 24 hours the animals were sacrificed and tissues removed, blotted dry, weighed and homogenized. Aliquots were counted and the amount of radioactivity determined. The results are expressed as nanomoles of lipid prodrug PFA[^14C] per gm tissue.

[3] = test system: human cytomegalovirus (HCMV); experiment: Human cytomegalovirus (HCMV) antiviral susceptibility assay (HCMV DNA hybridization in MRC-5 cells); format: cell-based; conditions: for IC50: HCMV-infected MRC-5 human lung fibroblasts, HCMV DNA after 5 days, mean ± SD (n); for antiviral activity compared in words: comparison with PFA / B-PFA
Protocol: Subconfluent MRC-5 cells in 24-well culture dishes were pretreated for 24 hours with various concentrations of drug in MEM medium containing 2% FBS and antibiotics. The media was removed and virus added at a dilution that will result in a 3-4+ cytopathic effect (CPE) in the no-drug wells in five days. This was absorbed for 1 hour at 37° C., aspirated and replaced with the drug dilutions. After five days of incubation HCMV DNA was quantified in triplicate by nucleic acid hybridization using a CMV AntiviraL Susceptibility Test Kit from Diagnostic Hybrids, Inc. (Athens, Ohio). The media was removed and cells lysed according to the manufacturer's instructions.
After absorption of the lysate, the Hybriwix™ filters were hybridized overnight at 60° C. The Hybriwix™ were washed for 30 minutes at 73° C. and counted in a gamma counter. The results are expressed as HCMV DNA as a percentage of the untreated HCMV-infected control cells.

[4] = test system: human immunodeficiency virus-1; experiment: Plaque reduction assay for HIV-1 replication in HT4-6C cells; format: cell-based; conditions: comparison with PFA / B-PFA / BB-PFA
Protocol: HT4-6C cells and plaque reduction assay, CD4-expressing HeLa cells, HT4-6C cells (Chesebro, B. and K. Wehrly (1988) J. Virol. 62:3779-3788), were obtained from Bruce Chesebro, Hamilton, Mont. The effect of antiviral compounds on HIV replication was measured by a plaque reduction assay. Briefly, monolayers of HT4-6C cells were infected with 100 to 300 PFU of virus per well in 24-well microdilution plates. Various concentrations of drug were added to the culture medium, Dulbecco's Modified Eagle Medium containing 5% fetal bovine serum and antibiotics, as noted above. After 3 days at 37° C., the monolayers were fixed with 10% formaldehyde solution in phosphate-buffered saline and stained with 0.25% crystal violet to visualize virus plaques (Larder, B. et al. (1989) Science 243:1731-1734). Antiviral activity was assessed as the percentage of control Plaques measured in drug-treated samples.

HSV-1 virus = experiment: HSV antiviral susceptibility assay (HSV DNA hybridization in MRC-5 cells); format: cell-based, human herpes simplex virus 1; conditions: comparison with PFA / B-PFA
Protocol: Subconfluent MRC-5 cells in 24-well culture dishes were inoculated by removing the media and adding HSV-1 virus at a dilution that will result in a 3-4+CPE in the no-drug well in 20-24 hours. This was absorbed for 1 hour at 37° C., aspirated and replaced with various concentrations of drugs in MEM medium containing 2% FBS and antibiotics. After approximately 24 hours of incubation, HSV DNA was quantified in triplicate by nucleic acid hybridization using a HSV Antiviral Susceptibility Test Kit from Diagnostic Hybrids, Inc. (Athens, Ohio). The media was removed and cells lysed according to the manufacturer's instructions. After absorption of the lysate, the Hybriwix™ filters were hybridized overnight at 60° C. The Hybriwix™ were washed for 30 minutes at 73° C. and counted in a gamma counter. The results are expressed as a percentage of the untreated HSV-infected control cells.

SMILES | effective doses (ED50) [1] | tissue levels of drug [2] | IC50 [3] | antiviral activity compared in words ([3]; HCMV) | also measured
CCCCCCCCCCCCCCCCCCOC[C@@H](O)COP(=O)(O)OC[C@H]1O[C@@H](n2cc(C)c(=O)[nH]c2=O)C[C@@H]1N=[N+]=[N-] [1-O-octadecyl-sn-glycero-3-P-AZT, 1-O-Octadecyl-sn-glycero-3-phospho-3′-azido-3′-deoxythymidine] | comparable |  |  |  | inhibition of splenomegaly, effectiveness ([1]; RLV-infected mice, once a day gavage versus free AZT in drinking water (FIG. 1)): as effective, in comparable doses, as virtually continuous free AZT administration
Cc1cn([C@H]2C[C@H](N=[N+]=[N-])[C@@H](CO)O2)c(=O)[nH]c1=O [AZT, 3′-azido-3′-deoxythymidine, reference compound] | comparable |  |  |  | 
CCCCCCCCCCCCCCCCCCOC[C@@H](O)COP(=O)(O)C(=O)O [B-PFA, 1-O-octadecyl-sn-glycero-3-phosphonoformate] |  | lower levels of drug in most tissues studied including liver, spleen, jejunum and ileum |  |  | 
CCCCCCCCCCCCCCCCCCOC[C@H](COP(=O)(O)C(=O)O)OCc1ccccc1 [BB-PFA, 1-O-octadecyl-2-O-benzyl-sn-glycero-3-phosphonoformate] |  |  | 0.54 ± 0.65 µM | equivalent in antiviral activity to B-PFA | 
CCCCCCCCCCCCCCCCCCOC[C@H](COP(=O)(O)C(=O)O)OC [MB-PFA, 1-O-octadecyl-2-O-methyl-sn-glycero-3-phosphonoformate] |  | higher tissue levels of drug were observed in liver, spleen, lung, brain, kidney and lymph node |  | equivalent in antiviral activity to B-PFA | antiviral activity compared in words [4]: significantly more active than B-PFA and BB-PFA; also recorded: more active than B-PFA to a statistically significant degree; drug levels in the small intestine [2]: lower in the small intestine; antiviral activity compared in words (HSV-1 virus): more active than B-PFA
CCCCCCCCCCCCCCCCCCOCC(COP(=O)(O)C(=O)O)(OC)OC [ODDMOP-PFA, 1-O-octadecyl-2,2-dimethoxypropane-3-phosphonoformate] |  |  | 0.22 ± 0.14 µM | substantially more active | FOLD INCREASE IN ACTIVITY ([3]; versus PFA, HCMV): 209 fold
